According to publication PMC6271423, “Synthesis and Biological Evaluation of New Pyridone-Annelated Isoindigos as Anti-Proliferative Agents” (Molecules, 2014):

How the values were obtained:
K562 cells = assay: MTT cell viability (antiproliferative) assay in K562 cells; assay type: cell-based, human; details: for cytotoxicity / antiproliferative activity to K562 cells (in words): 0.0 to 30.0 µM, 24 h; for IC50: Homo sapiens
Experimental: The antiproliferative activities of the synthesized molecules were initially evaluated in human chronic […] leukemia cells K562. The effect of the six derivatives on the viability of K562 was assessed by an MTT assay as described in the methods. In all MTT tests performed, the known antiproliferative agent etoposide was used as a positive control to validate the accuracy of the assay.
Figure 2 The isoindigo compounds 3b and 3d inhibit the growth of K562 cells in a dose- and time-dependent manner. (A) K562 cells were treated with varying concentrations of compounds 3a to 3f (0.0 to 30.0 µM) for 24 h and the antiproliferative activity was analyzed by MTT assay as described in the methods. (B) K562 cells were incubated with 12.0 µM of either compound 3b or 3d for different periods of time (0 to 72 h) and cell viability was assessed by the MTT assay. The controls (in the presence or absence of the solvent vehicle DMSO) represent cells incubated under similar conditions in the absence of the test compound. The percentage of cell viability in each sample was expressed relative to untreated control, which was considered as a 100%. K562 cells were also treated with 4.0, 8.0 and 12.0 µM etoposide under similar conditions as positive controls. The results shown represent the mean ± SD of three independent trials.
Figure 3 The IC50 values of compounds 3b and 3d determined in K562 cells at different time points. K562 cells were treated with varying concentrations of compounds 3b or 3d (0.0 to 40.0 µM) for different periods of time (24, 48 and 72 h) and their antiproliferative activity was analyzed by MTT viability assay. The sigmoidal curves shown were obtained by plotting the percentages of viability (mean ± SD of three independent experiments, three replicates for each concentration in every experiment were used) versus logarithmic molar concentrations of the test compounds at the three different time points, and the IC50 value was determined using a non-linear regression analysis of GraphPad Prism 6 software.
The human chronic myelogenous leukemia K562 (ATCC® CCL-243^TM) and human acute monocytic leukemia THP-1 (ATCC® TIB-202^TM) suspension cells were maintained in RPMI-1640, while adherent HepG2 (human hepatocellular carcinoma, ATCC® HB-8065^TM), MCF7 (human breast adenocarcinoma, ATCC® HTB-22^TM) were cultured in DMEM medium. Adherent Caco-2 (human colorectal adenocarcinoma, ATCC® HTB-37^TM), HEK-293 (human embryonic epithelial cells, ATCC® CRL-1573^TM) and L-929 (mouse subcutaneous connective tissue fibroblast, ATCC® CCL-1^TM) cells were cultured in MEM medium. The media were supplemented with 10% (v/v) heat inactivated FBS, penicillin G (100 U/mL) and streptomycin ([…]), and cells were incubated at 37 °C in a 5% CO2 humidified incubator. The media were changed every 2–3 days and subcultured when the cell population density reached to 70%–80% confluence. Cells were seeded at an appropriate density according to each experimental design.
The antiproliferative activity of the synthesized compounds was assessed using the MTT cell viability assay. Briefly, 2 × 10^4 of the non-adherent K562 or THP-1 cells, in a 100 μL of RPMI-1640 medium, or […] of adherent HepG2, MCF-7, Caco-2, HEK-293 or L-929, in a same volume of the proper media, were seeded in each well of a 96 well-plate. After 24 h, the media was removed by aspiration and replaced by fresh media containing the test compound at varying concentrations (0.0 to 40.0 µM, for cancerous cells) or (0.0 to 80.0 µM, for noncancerous cells), and incubated for the desired time in a 5% CO2-cell culture incubator. Alternatively, cultured K562 cells were incubated with 12.0 µM of the test compound for different time-points (0, 2, 4, 8, 12, 24, 48 and 72 h) before analysis. […]

HEK-293 cells = assay: MTT cell viability assay in noncancerous HEK-293 cells; assay type: cell-based; details: Homo sapiens, HEK293, 48 h incubation
Description: (§1) In addition to the effect on K562 cells, we have also evaluated the potential antiproliferative activities of compounds 3b and 3d on different hematological and solid tumor cell lines. […] To further characterize the cytotoxicity of compounds 3b and 3d, we evaluated their effects on inducing apoptosis of the cultured K562 cells (Figure 5).
(§2) Figure 4 Compounds 3b and 3d inhibit the growth of various hematological and solid tumor cell lines but not noncancerous cells at low IC50 values. […]
(§3) The antiproliferative activity of the synthesized compounds was assessed using the MTT cell viability assay. […] Absorbance was measured within 60 min at 595 nm using an E Max Precision Microplate reader (Molecular Devices, Sunnyvale, CA, USA). Cell viability at a given concentration was determined from the following expression: Percentage Viability = (Atest compound − Ablank/Acontrol − Ablank) × 100 (1) where Atest compound = absorbance of wells with cells exposed to test compound in media; Acontrol = absorbance of wells with cells in media and Ablank = absorbance of wells with DMSO only, without cells. […]

HepG2 cells = assay: MTT cell viability (antiproliferative) assay in HepG2 cells; assay type: cell-based; details: Homo sapiens, 48 h incubation
Description: as §1, §2, §3

MCF-7 cells = assay: MTT cell viability (antiproliferative) assay in MCF-7 cells; assay type: cell-based; details: Homo sapiens, MCF7, 48 h incubation
Description: as §1, §2, §3

Caco-2 cells = assay: MTT cell viability (antiproliferative) assay in Caco-2 cells; assay type: cell-based; details: Homo sapiens, 48 h incubation
Description: as §1, §2, §3

THP-1 cells = assay: MTT cell viability (antiproliferative) assay in THP-1 cells; assay type: cell-based; details: Homo sapiens, 48 h incubation
Description: as §1, §2, §3

L-929 cells = assay: MTT cell viability assay in noncancerous L-929 fibroblasts; assay type: cell-based; details: Mus musculus, L929, 48 h incubation
Description: as §1, §2, §3

[1] = parameters: method as in PMID 16330129; details: cited from earlier work

SMILES: CCn1cc(C(=O)O)c(=O)c2c3c(ccc21)NC(=O)/C3=C1/C(=O)Nc2ccccc21 [3a, (E)-6-Ethyl-2,9-dioxo-1-(2'-oxoindolin-3'-ylidene)-2,3,6,9-tetrahydro-1H-pyrrolo[3,2-f]quinoline-8-carboxylic acid]
- cytotoxicity / antiproliferative activity to K562 cells (in words) (K562 cells): significantly inhibited their antiproliferative activities
- melting point: > 300 °C

SMILES: CCn1cc(C(=O)O)c(=O)c2c3c(ccc21)NC(=O)/C3=C1/C(=O)Nc2ccc(Cl)cc21 [3b, (E)-1-(5'-Chloro-2'-oxoindolin-3'-ylidene)-6-ethyl-2,3,6,9-tetrahydro-2,9-dioxo-1H-pyrrolo[3,2-f]quinoline-8-carboxylic acid]
- cytotoxicity / antiproliferative activity to K562 cells (in words) (K562 cells): significant dose-dependent cytotoxicity
- IC50 (K562 cells; K562, 24 h incubation): 15.1 ± 1.27 µM
- IC50 (K562 cells; K562, 48 h incubation): 6.6 ± 0.58 µM
- IC50 (K562 cells; K562, 72 h incubation): 4.02 ± 0.52 µM
- IC50 (HEK-293 cells): 30.7 ± 2.52 µM
- IC50 (HepG2 cells): 8.97 ± 0.84 µM
- IC50 (MCF-7 cells): 11.9 ± 0.67 µM
- IC50 (Caco-2 cells): 14.6 ± 1.32 µM
- IC50 (THP-1 cells): 8.21 ± 0.62 µM
- IC50 (L-929 cells): 40.4 ± 3.15 µM

SMILES: CCn1cc(C(=O)O)c(=O)c2c3c(ccc21)NC(=O)/C3=C1/C(=O)Nc2cc(Cl)ccc21 [3c, (E)-1-(6'-Chloro-2'-oxoindolin-3'-ylidene)-6-ethyl-2,3,6,9-tetrahydro-2,9-dioxo-1H-pyrrolo[3,2-f]quinoline-8-carboxylic acid]
- cytotoxicity / antiproliferative activity to K562 cells (in words) (K562 cells): significantly abolished the cytotoxicity
- melting point: > 300 °C

SMILES: CCn1cc(C(=O)O)c(=O)c2c3c(ccc21)NC(=O)/C3=C1/C(=O)Nc2ccc(Br)cc21 [3d, (E)-1-(5'-Bromo-2'-oxoindolin-3'-ylidene)-6-ethyl-2,3,6,9-tetrahydro-2,9-dioxo-1H-pyrrolo[3,2-f]quinoline-8-carboxylic acid]
- cytotoxicity / antiproliferative activity to K562 cells (in words) (K562 cells): significant dose-dependent cytotoxicity
- IC50 (K562 cells; K562, 24 h incubation): 19.1 ± 1.8 µM
- IC50 (K562 cells; K562, 48 h incubation): 8.66 ± 0.81 µM
- IC50 (K562 cells; K562, 72 h incubation): 6.92 ± 0.84 µM
- IC50 (HEK-293 cells): 52.5 ± 4.7 µM
- IC50 (HepG2 cells): 13.9 ± 2.01 µM
- IC50 (MCF-7 cells): 15.7 ± 1.94 µM
- IC50 (Caco-2 cells): 19 ± 1.37 µM
- IC50 (THP-1 cells): 9.1 ± 1 µM
- IC50 (L-929 cells): 71.9 ± 5.22 µM

SMILES: CCn1cc(C(=O)O)c(=O)c2c3c(ccc21)NC(=O)/C3=C1/C(=O)Nc2cc(Br)ccc21 [3e, (E)-1-(6'-Bromo-2'-oxoindolin-3'-ylidene)-6-ethyl-2,3,6,9-tetrahydro-2,9-dioxo-1H-pyrrolo[3,2-f]quinoline-8-carboxylic acid]
- cytotoxicity / antiproliferative activity to K562 cells (in words) (K562 cells): significantly abolished the cytotoxicity
- melting point: > 300 °C

SMILES: CCn1cc(C(=O)O)c(=O)c2c3c(ccc21)NC(=O)/C3=C1/C(=O)Nc2ccc([N+](=O)[O-])cc21 [3f, (E)-6-Ethyl-1-(5'-nitro-2'-oxoindolin-3'-ylidene)-2,9-dioxo-2,3,6,9-tetrahydro-1H-pyrrolo[3,2-f]quinoline-8-carboxylic acid]
- cytotoxicity / antiproliferative activity to K562 cells (in words) (K562 cells): significantly inhibited their antiproliferative activities
- melting point: > 300 °C

SMILES: CC(=O)OC1COC(N2C(=O)C(=C3C(=O)Nc4ccccc43)c3ccccc32)C(OC(C)=O)C1OC(C)=O [Natura^TM, 1-(β-D-triacetylxylopyranosyl) isoindigo]
- solubility in water (in words) [1]: almost completely insoluble in water
